One block for each compound: values may come before it.
Key:
[1] = system: suspension monkey hepatocytes; experiment: In vitro hepatic uptake clearance in suspension monkey hepatocytes; type: in vitro ADME, cynomolgus monkey; conditions: 37°C
[2] = Monkey PBPK model fitting of plasma and liver concentrations; design: species or system cynomolgus monkey; conditions: for reduction of active uptake clearance with rifampin inhibition (modeled): PBPK model, RIF vs vehicle; for Kp: plasma and liver
[3] = Liver exposure; type: in vivo, cynomolgus monkey; conditions: for liver concentration, RIF vs vehicle, at 1 h: 1 h post IV infusion; for increase of liver concentration with RIF at 6 h: average, RIF vs vehicle, N = 2 per time point
[4] = cited from earlier work
[5] = Plasma pharmacokinetics after single IV cassette infusion; type: in vivo, cynomolgus monkey
[6] = Urinary excretion in monkeys; type: in vivo; conditions: in-house bile duct cannulation (BDC) monkey study (data not shown)
[7] = clinical trial; cited from earlier work
[8] = Pharmacokinetics of rifampin after oral administration; type: in vivo; conditions: male, cynomolgus monkey, plasma, 20 mg/kg
[9] = monkeys; cited from earlier work
[10] = humans; cited from earlier work
[11] = system: OAT2; conditions: read-out: IC50 for OAT2; cited from earlier work
[12] = system: OATP1B3; conditions: read-out: Ki against OATP1B3; cited from earlier work
[13] = system: OATP1B1; conditions: read-out: Ki against OATP1B1; cited from earlier work
[14] = PBPK fitted, rifampin, estimate (%CV)
[15] = PBPK fitted, vehicle, estimate (%CV)
[16] = cynomolgus monkey, intravenous, 0.5 mg/kg, Kp,rest, PBPK fitted, vehicle, estimate (%CV)
[17] = cynomolgus monkey, intravenous, 0.5 mg/kg, Kp,scalar, PBPK fitted, vehicle, estimate (%CV)
[18] = RIF 20 mg/kg orally vs vehicle, monkeys
[19] = rifampin, fixed to the value estimated without rifampin

Compound: Nc1c(CC(=O)O)cccc1C(=O)c1ccc(Br)cc1 [Bromfenac]
- hepatocyte uptake in the presence of 200 µM of rifamycin SV [1]: partially inhibit
- CL,u,int,passive [2, 14]: 11.2 (95.3%) ml/min/kg
- CLu,int,active [2, 14]: 820 (10.8%) ml/min/kg
- CLu,int,meta [2, 14]: 84.8 (3.8%) ml/min/kg
- CL,u,int,passive [2, 15]: 13.1 (96.2%) ml/min/kg
- CLu,int,active [2, 15]: 2300 (18.7%) ml/min/kg
- CLu,int,meta [2, 15]: 49.7 (16.9%) ml/min/kg
- reduction of active uptake clearance with rifampin inhibition (modeled) [2]: 64%
- Kp [2, 16]: 0.8
- Kp [2, 17]: 0.5
- liver concentrations, vehicle vs RIF pretreated groups, at 1, 2.5, and 6 h [3]: overlapped
- bromfenac glucuronide excreted in urine, % of the administered dose ([4]; healthy subjects): 82.5%
- decrease of systemic CL in the presence of RIF [5, 18]: 2.1 fold
- increase of plasma exposure (AUClast) with RIF compared to the vehicle group [5, 18]: 2.1 fold

Compound: COc1ccccc1[C@H](Cn1c(=O)n(C(C)(C)C(=O)O)c(=O)c2c(C)c(-c3ncco3)sc21)OC1CCOCC1 [GS‐0976]
- pharmacodynamic (PD) effect with potent OATP inhibitor [7]: not altered
- plasma concentration with potent OATP inhibitor [7]: increased significantly

Compound: O=C(O)C[C@H](O)C[C@H](O)/C=C/c1c(C2CC2)nc2ccccc2c1-c1ccc(F)cc1 [pitavastatin]
- increase of systemic exposure when co-administered orally with rifampin [10]: 5.7 fold

Compound: CO[C@H]1/C=C/O[C@@]2(C)Oc3c(C)c(O)c4c(O)c(cc(O)c4c3C2=O)NC(=O)/C(C)=C\C=C\[C@H](C)[C@H](O)[C@@H](C)[C@@H](O)[C@@H](C)[C@H](OC(C)=O)[C@@H]1C [rifamycin SV]
- IC50 [11]: ~200 µM
- Ki [12]: 3 µM
- Ki [13]: 2 µM

More lines, main results first:

- liver concentration, RIF vs vehicle, at 1 h [3]: minimally changed
- increase of liver concentration with RIF at 6 h [3]: 3.7 fold
- increase of plasma exposure (AUClast) with RIF compared to the vehicle group [5, 18]: 8.8 fold
Compound: CC1=C(CCC(=O)O)c2cc3nc(cc4[nH]c(cc5[nH]c(cc1n2)c(C)c5CCC(=O)O)c(CCC(=O)O)c4C)C(CCC(=O)O)=C3C [CP‐III]

- hepatocyte uptake in the presence of 200 µM of rifamycin SV [1]: greatly inhibited
- CL,u,int,passive [2, 14]: 2.9 (32.4%) ml/min/kg
- CLu,int,active [2, 14]: 95.2 (4.4%) ml/min/kg
- CLu,int,bile [2, 14]: 11.7 (0.1%) ml/min/kg
- CL,u,int,passive [2, 15]: 4.1(11.8%) ml/min/kg
- CLu,int,active [2, 15]: 1154.1 (5.2%) ml/min/kg
- CLu,int,bile [2, 15]: 16.3 (0.022%) ml/min/kg
- Kp,rest [2, 15]: 0.85 (6.1%)
- Kp,scalar [2, 15]: 0.16 (29.4%)
- Kp,rest [2, 19]: 0.85 (fixed)
- Kp,scalar [2, 19]: 0.16 (fixed)
- liver concentration, RIF vs vehicle, at 1 h [3]: comparable
- liver concentrations, RIF-treated vs vehicle group, at 2.5 h and 6 h ([3]; 2.5 h and 6 h): higher
- average Kp,liver (liver to plasma ratio) ([3]; without RIF (reduced by RIF treatment), Figure S3): ~17
- Urinary excretion, % of total dose [6]: 7.5%
- decrease of systemic CL in the presence of RIF [5, 18]: about 10 fold
- increase of Cmax with RIF [5, 18]: 4.8 fold
- increase of plasma exposure (AUClast) with RIF compared to the vehicle group [5, 18]: 9.1 fold
- volume of distribution (V) ([5]; in the presence of RIF): 0.05 L/kg
- volume of distribution (V) ([5]; vehicle group (without RIF)): 0.11 L/kg
Compound: CN(C)c1ccc2c(c1)c(=O)n(-c1ccc(C[C@H](NC(=O)c3c(Cl)cccc3Cl)C(=O)O)cc1)c(=O)n2C [Carotegrast]

- concentration at 3.25 h ([8]; oral): 20.8 µM
- concentration at 6 h ([8]; oral): > 10 µM
- Tmax ([8]; po): 3.5 to 4.5 h
Compound: CO[C@H]1/C=C/O[C@@]2(C)Oc3c(C)c(O)c4c(O)c(c(/C=N/N5CCN(C)CC5)c(O)c4c3C2=O)NC(=O)/C(C)=C\C=C\[C@H](C)[C@H](O)[C@@H](C)[C@@H](O)[C@@H](C)[C@H](OC(C)=O)[C@@H]1C [RIF, rifampin]

- hepatocyte uptake in the presence of 200 µM of rifamycin SV [1]: greatly inhibited
- CL,u,int,passive [2, 14]: 0.5 (41%) ml/min/kg
- CLu,int,active [2, 14]: 81.7 (8.5%) ml/min/kg
- CLu,int,bile [2, 14]: 2.6 (19.7%) ml/min/kg
- CL,u,int,passive [2, 15]: 1.0 (22.5%) ml/min/kg
- CLu,int,active [2, 15]: 331.8 (13.8%) ml/min/kg
- CLu,int,bile [2, 15]: 2.8 (1.7%) ml/min/kg
- reduction of active uptake clearance with rifampin inhibition (modeled) [2]: 75%
- Kp [2, 16]: 2.7
- Kp [2, 17]: 1.1
- CL renal ([2]; cynomolgus monkey, plasma, intravenous, 0.5 mg/kg): 0.264 L/h/kg
- liver concentrations, vehicle vs RIF pretreated groups, at 1, 2.5, and 6 h [3]: overlapped
- decrease of systemic CL in the presence of RIF [5, 18]: 2.2 fold
- increase of plasma exposure (AUClast) with RIF compared to the vehicle group [5, 18]: 2.3 fold
Compound: CC(C)c1nc(N(C)S(C)(=O)=O)nc(-c2ccc(F)cc2)c1/C=C/[C@@H](O)C[C@@H](O)CC(=O)O [Rosuvastatin]
- Urinary excretion, % of the absorbed dose [9]: ~ 20%
- fraction cleared through renal excretion ([4]; humans): less than 10%

- liver concentration, RIF vs vehicle, at 1 h [3]: minimally changed
- increase of liver concentration with RIF at 6 h [3]: 3.2 fold
- increase of plasma exposure (AUClast) with RIF compared to the vehicle group [5, 18]: 5.4 fold
Compound: coproporphyrin I [CP‐I]

— article PMC8504809 (Clinical and Translational Science, 2021)
